Entries after “also recorded” stand apart in the source; their conditions may differ. Counter-ions that a name gives are not always drawn. Like-named read-outs stand apart in the source and are kept apart here.
Legend:
CDK7 = CDK7 (Homo sapiens, UniProt P50613); conditions: cited from earlier work
CDK8 = CDK8 (Homo sapiens, UniProt P49336); set-up: key: + is used to indicate the potency of the inhibitor; ++++ > +++ > ++ > +; + is used to indicate the potency of the inhibitor; ++++ > +++ > ++ > +; + is used to indicate the potency of the inhibitor; ++++ > +++ > ++ > +; + is used to indicate the potency of the inhibitor; ++++ > +++ > ++ > +; ◯ refers to compounds with inhibitory effects on the related isoform, but without specific value; conditions: cited from earlier work
Chain of CDK8 (P24863 whole entry, canonical isoform): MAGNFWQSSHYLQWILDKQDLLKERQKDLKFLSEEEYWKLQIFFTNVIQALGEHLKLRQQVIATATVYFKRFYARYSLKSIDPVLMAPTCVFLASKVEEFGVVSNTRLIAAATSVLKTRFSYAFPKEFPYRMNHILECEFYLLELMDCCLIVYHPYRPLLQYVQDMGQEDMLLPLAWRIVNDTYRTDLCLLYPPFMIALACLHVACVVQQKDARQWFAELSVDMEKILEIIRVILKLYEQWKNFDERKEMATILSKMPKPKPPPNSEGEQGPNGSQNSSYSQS
Chain of CDK8 (P49336 whole entry, canonical isoform): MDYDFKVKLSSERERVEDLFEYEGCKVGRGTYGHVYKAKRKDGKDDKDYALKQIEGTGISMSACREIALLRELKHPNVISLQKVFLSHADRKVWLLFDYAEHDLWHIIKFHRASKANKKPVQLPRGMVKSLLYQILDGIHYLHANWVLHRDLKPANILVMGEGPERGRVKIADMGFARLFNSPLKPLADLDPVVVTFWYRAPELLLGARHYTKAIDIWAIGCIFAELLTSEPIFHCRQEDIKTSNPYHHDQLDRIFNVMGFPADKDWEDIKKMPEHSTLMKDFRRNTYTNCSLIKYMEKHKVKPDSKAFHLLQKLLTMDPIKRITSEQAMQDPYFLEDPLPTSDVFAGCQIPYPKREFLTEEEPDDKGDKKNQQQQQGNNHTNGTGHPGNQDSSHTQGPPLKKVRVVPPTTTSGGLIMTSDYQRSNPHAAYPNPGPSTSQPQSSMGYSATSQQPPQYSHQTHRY

CDK9 = CDK9 (Homo sapiens, UniProt P50750); set-up: key: + is used to indicate the potency of the inhibitor; ++++ > +++ > ++ > +; + is used to indicate the potency of the inhibitor; ++++ > +++ > ++ > +; + is used to indicate the potency of the inhibitor; ++++ > +++ > ++ > +; + is used to indicate the potency of the inhibitor; ++++ > +++ > ++ > +; ◯ refers to compounds with inhibitory effects on the related isoform, but without specific value; conditions: cited from earlier work
ERK and AKT = assay type: cell-based, human
ACE2 [1] = assay type: cell-based, human
Chitinase 1 (CHIT1) = Chitinase 1 (CHIT1) (Homo sapiens, UniProt Q13231); conditions: cited from earlier work
Chain of Chitinase 1 (CHIT1) (Q13231 22-466): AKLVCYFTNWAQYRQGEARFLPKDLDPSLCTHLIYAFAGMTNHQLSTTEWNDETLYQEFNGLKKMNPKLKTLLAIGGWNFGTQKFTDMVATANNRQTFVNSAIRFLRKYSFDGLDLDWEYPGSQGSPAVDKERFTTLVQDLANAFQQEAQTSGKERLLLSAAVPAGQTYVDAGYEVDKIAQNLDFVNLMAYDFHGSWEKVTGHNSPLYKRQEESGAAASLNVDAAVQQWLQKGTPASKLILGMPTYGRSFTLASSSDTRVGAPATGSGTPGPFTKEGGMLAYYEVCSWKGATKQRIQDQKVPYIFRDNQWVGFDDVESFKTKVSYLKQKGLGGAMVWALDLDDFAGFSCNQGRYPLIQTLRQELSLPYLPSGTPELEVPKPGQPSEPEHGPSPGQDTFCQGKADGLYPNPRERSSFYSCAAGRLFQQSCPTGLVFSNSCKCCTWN

[2] = test system: pseudovirus with the G614 S protein; assay type: cell-based, SARS-CoV-2
[3] = test system: pseudovirus with the ancestral G614 S protein; assay type: cell-based, SARS-CoV-2
TMPRSS2, CTSL and FURIN = assay type: cell-based, human
[4] = test system: influenza and other viral infections; conditions: cited from earlier work
CDK4 = CDK4 (Homo sapiens, UniProt P11802); conditions: cited from earlier work
Chain of CDK4 (P11802 whole entry, species assumed): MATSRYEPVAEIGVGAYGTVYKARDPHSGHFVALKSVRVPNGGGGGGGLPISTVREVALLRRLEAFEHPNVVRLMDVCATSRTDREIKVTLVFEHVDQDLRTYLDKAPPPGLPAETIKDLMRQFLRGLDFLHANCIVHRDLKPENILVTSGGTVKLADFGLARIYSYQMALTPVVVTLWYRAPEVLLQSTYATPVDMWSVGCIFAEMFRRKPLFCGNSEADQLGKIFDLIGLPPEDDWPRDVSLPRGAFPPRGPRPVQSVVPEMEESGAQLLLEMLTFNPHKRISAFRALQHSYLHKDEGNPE
Chain of CDK4 (P24385 whole entry partner, species assumed): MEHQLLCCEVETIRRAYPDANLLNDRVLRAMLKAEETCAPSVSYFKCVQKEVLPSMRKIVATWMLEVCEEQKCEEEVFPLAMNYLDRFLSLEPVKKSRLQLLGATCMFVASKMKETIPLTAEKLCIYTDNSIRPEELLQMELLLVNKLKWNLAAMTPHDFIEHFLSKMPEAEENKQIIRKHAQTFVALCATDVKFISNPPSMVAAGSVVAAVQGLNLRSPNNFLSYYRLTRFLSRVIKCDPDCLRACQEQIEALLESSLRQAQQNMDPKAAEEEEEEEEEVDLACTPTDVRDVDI

CDK3 = CDK3 (Homo sapiens, UniProt Q00526); conditions: cited from earlier work
Chain of CDK3 (P24864 whole entry): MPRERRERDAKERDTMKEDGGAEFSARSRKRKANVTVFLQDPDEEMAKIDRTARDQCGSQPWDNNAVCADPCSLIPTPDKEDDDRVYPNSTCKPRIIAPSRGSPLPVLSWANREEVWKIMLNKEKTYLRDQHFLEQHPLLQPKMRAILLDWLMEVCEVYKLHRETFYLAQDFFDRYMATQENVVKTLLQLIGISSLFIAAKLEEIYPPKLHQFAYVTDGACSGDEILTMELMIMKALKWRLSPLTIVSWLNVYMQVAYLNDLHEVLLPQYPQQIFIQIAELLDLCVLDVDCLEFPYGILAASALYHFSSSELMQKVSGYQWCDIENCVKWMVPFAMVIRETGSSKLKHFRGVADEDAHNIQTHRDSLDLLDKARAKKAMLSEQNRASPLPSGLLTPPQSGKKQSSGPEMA
Chain of CDK3 (Q00526 whole entry): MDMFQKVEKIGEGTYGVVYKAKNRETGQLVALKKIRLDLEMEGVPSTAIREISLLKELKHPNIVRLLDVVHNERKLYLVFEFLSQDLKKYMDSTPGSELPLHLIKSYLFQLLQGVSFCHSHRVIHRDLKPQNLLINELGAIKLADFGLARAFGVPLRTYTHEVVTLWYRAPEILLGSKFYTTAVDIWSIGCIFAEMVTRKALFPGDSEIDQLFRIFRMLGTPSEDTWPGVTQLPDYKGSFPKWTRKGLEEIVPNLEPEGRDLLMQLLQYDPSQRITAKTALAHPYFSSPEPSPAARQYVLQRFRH

CDK1 = CDK1 (Homo sapiens, UniProt P06493); conditions: cited from earlier work
Chain of CDK1 (P06493 whole entry, species assumed): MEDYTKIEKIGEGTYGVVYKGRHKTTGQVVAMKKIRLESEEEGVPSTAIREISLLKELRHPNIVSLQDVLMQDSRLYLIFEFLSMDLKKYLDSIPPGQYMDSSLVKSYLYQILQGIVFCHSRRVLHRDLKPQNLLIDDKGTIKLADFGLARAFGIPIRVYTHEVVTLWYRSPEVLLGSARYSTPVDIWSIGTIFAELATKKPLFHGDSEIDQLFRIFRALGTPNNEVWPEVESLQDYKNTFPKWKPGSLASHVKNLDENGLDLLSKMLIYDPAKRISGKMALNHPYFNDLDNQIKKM
Chain of CDK1 (P14635 whole entry partner, species assumed): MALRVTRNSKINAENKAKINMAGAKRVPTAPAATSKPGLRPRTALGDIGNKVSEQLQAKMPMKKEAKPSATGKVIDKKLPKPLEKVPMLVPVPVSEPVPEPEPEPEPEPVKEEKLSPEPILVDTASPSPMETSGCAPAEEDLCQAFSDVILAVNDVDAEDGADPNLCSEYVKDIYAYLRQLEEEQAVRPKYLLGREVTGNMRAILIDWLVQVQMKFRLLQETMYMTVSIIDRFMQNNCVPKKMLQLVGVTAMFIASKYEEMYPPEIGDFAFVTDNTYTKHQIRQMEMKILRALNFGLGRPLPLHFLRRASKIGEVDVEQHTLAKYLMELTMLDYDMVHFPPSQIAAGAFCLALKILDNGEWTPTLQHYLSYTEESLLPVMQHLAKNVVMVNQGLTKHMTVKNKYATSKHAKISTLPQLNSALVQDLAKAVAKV

CDK2 = CDK2 (Homo sapiens, UniProt P24941); conditions: cited from earlier work
CDK6 = CDK6 (Homo sapiens, UniProt Q00534); set-up: key to the marks not given beside the values; conditions: cited from earlier work
Chain of CDK6 (Q00534 whole entry): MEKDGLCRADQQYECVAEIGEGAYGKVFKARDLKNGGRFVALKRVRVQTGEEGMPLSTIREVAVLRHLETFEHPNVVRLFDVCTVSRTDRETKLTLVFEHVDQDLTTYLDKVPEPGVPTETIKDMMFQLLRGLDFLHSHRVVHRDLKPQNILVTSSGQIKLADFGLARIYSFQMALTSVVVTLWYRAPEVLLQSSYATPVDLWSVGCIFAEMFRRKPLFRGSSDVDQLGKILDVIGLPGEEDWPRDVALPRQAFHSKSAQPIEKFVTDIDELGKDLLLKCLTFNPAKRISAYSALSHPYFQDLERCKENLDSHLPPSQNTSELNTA
Chain of CDK6 (P30281 whole entry, further chain): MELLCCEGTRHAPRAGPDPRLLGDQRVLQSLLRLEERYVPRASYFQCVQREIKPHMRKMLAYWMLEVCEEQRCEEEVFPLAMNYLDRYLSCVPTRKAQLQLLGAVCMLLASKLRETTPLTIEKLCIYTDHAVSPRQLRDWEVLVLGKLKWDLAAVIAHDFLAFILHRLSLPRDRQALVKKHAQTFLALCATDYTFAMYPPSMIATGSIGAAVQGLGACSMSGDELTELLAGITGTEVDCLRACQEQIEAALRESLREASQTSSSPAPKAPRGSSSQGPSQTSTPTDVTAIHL

[5] = test system: pseudovirus containing the S protein (D614 and G614 variants); assay type: cell-based; conditions: Calu-3 cells, rCHI3L1 250 ng/mL 24 hours, GFP by flow cytometry
[6] = test system: pseudoviruses with delta S proteins; assay type: cell-based, SARS-CoV-2
ACE2 [7] = experiment: Immunocytochemical evaluation of ACE2 in Calu-3 cells; assay type: cell-based, human; conditions: at baseline and or after the administration of rCHI3L1; ICC, FIG. 18
human and mouse CHI3L1 = experiment: Ligand binding affinity of FRG by ELISA; conditions: both human and mouse CHI3L1
Method: The murine monoclonal anti-CHI3L1 antibody (FRG) was generated using peptide antigen (amino acid 223-234 of human CHI3L1) as immunogen through Abmart Inc (Berkeley Heights, NJ). […] HEK-293T cells were transfected with the FRG construct using Lipofectamine™ 3000 (Invitrogen, #L3000015). Supernatant was collected for 7 days, and the antibody was purified using a protein A column (ThermoFisher scientific, #89960). Ligand binding affinity and sensitivity were assessed using ELISA techniques.

[8] = Calu-3 cells, 24 hours, FRG or KSM 250 ng/mL, RT-PCR

Chain of CDK7 (P50613 whole entry, canonical isoform): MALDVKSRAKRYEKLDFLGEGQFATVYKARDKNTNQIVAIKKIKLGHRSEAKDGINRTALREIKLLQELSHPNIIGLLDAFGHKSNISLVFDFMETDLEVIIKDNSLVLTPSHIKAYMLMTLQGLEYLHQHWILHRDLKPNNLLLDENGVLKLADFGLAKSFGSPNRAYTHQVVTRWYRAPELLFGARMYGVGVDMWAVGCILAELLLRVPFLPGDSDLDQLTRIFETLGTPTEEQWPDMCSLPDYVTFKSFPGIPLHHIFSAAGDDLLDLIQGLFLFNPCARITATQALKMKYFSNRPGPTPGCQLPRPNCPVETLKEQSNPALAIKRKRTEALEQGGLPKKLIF
Chain of CDK7 (P51946 whole entry, further chain, canonical isoform): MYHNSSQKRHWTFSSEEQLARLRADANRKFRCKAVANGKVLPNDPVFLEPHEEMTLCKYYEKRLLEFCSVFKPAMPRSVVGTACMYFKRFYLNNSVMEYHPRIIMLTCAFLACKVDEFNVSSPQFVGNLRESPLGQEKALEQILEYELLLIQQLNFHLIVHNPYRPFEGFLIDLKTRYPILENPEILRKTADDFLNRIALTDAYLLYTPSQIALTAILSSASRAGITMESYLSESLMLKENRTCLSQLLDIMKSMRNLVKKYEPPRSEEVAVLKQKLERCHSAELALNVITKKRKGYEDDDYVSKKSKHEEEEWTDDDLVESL
Chain of CDK7 (P51948 whole entry, further chain, canonical isoform): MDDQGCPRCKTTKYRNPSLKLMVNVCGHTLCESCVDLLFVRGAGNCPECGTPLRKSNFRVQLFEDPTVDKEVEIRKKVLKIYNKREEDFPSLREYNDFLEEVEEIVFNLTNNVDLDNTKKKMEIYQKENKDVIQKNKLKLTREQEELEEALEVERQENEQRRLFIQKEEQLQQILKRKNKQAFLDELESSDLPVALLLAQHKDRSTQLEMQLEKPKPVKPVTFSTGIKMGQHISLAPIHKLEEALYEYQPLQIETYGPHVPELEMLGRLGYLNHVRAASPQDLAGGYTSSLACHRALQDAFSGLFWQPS

Molecule: LY2857785
- Inhibitory potency CDK7 (CDK7): +
- Inhibitory potency CDK8 (CDK8): +++
- Inhibitory potency CDK9 (CDK9): +++

Molecule: C[C@H]1O[C@H](O[C@H]2[C@H](O)[C@@H](O)[C@@H](O)[C@H](O)[C@@H]2O)[C@@H](N)C[C@@H]1NC(=N)C(=O)O [Kasugamycin, 2-amino-2-[(2R,3S,5S,6R)-5-amino-2-methyl-6-[(2R,3S,5S,6S)-2,3,4,5,6-pentahydroxycyclohexyl]oxyoxan-3-yl]iminoacetic acid]
- CHI3L1 stimulated MAPK and AKT activation (ERK and AKT): abrogated
- ability of rhCHI3L1 to stimulate ACE2 mRNA accumulation (ACE2 [1]): potently inhibited; also recorded: potently ameliorated
- levels of basal ACE2 expression (ACE2 [1]): diminished
- anti-Chitinase 1 (CHIT1) activities (Chitinase 1 (CHIT1)): strong
- pseudovirus uptake when exogenous CHI3L1 was not administered [2]: diminished
- rCHI3L1-augmented pseudovirus uptake [3]: abrogated
- basal and rhCHI3L1-stimulated expression of TMPRSS2, CTSL and FURIN (TMPRSS2, CTSL and FURIN): potently decreased
- influenza and other viral infections [4]: inhibit

Molecule: CN1CC[C@H](c2c(O)cc(O)c3c(=O)cc(-c4ccccc4Cl)oc23)[C@H](O)C1 [Flavopiridol HCl, Flavopiridol Hydrochloride]
- Inhibitory potency CDK4 (CDK4): +++
- Inhibitory potency CDK7 (CDK7): +
- Inhibitory potency CDK3 (CDK3): +
- Inhibitory potency CDK1 (CDK1): +++
- Inhibitory potency CDK2 (CDK2): +++
- Inhibitory potency CDK6 (CDK6): +++

B1: FRG: murine monoclonal anti-CHI3L1 antibody raised against amino acid 223-234 of human CHI3L1; heavy chain SEQ ID NO: 13, light chain SEQ ID NO: 14 (antibody, V domains shown)
VH: QIQLVQSGPELKKPGETVKISCKASGYTFTNYGMNWVKQAPGKGLKWMGWINTYTGEPTYADDFKGRFAFSLETSASTAYLQINNLRNEDMSTYFCARLGYGKFYVMDYWGQGTSVTVSS
VL: DVVMTQTPLSLPVSLGDQASISCRSSQSLVHSNGNTYLHWYLQKPGQSPKLLIYKVSNRFSGVPDRFSGSGSGTDFTLKISRVEAEDLGVYFCSQSTHVTWTFGGGTKLEIK
- CHI3L1 effect on cellular integration of S proteins [5]: abrogated
- levels of basal ACE2 expression (ACE2 [1]; [8]): modestly diminished
- ability of rhCHI3L1 to stimulate ACE2 mRNA accumulation (ACE2 [1]; Calu-3 cells, rhCHI3L1 24 hours, FRG or KSM 250 ng/mL, RT-PCR): potently inhibited; also recorded: potently ameliorated
- delta pseudovirus infection [6]: abrogated
- expression of ACE2 (ACE2 [7]): abrogated
- pseudovirus uptake when exogenous CHI3L1 was not administered [2]: diminished
- pseudovirus uptake when exogenous rCHI3L1 was not administered [3]: diminished
- rCHI3L1-augmented pseudovirus uptake [3]: abrogated
- basal and rhCHI3L1-stimulated expression of TMPRSS2, CTSL and FURIN (TMPRSS2, CTSL and FURIN; [8]): potently decreased
- Kd (human and mouse CHI3L1): ~1.1 nM

Source: patent US20230312752A1 (Brown University, priority 2021, published 2023)
